Data on 14 compounds can be found in patent US20260007758A1, “SO[…]-2 RECEPTOR (SST2R) NON-PEPTIDE DRUG CONJUGATES AND USES THEREOF” (Crinetics Pharmaceuticals, Inc., priority 2024, published 2026).

As usually defined, the EC50 is the concentration needed to bring the measured effect to its halfway point.

What all share (type): cell-based
The target of test [1] is T1, human somatostatin receptor subtype 2 (Homo sapiens, UniProt P30874).
T1 construct: expressed in transfected cells
As to the kind of experiment: Functional assay for SSTR2 agonists (HTRF cAMP). Conditions: CHO-K1 cells stably expressing human SST2; NKH477-stimulated cAMP; 20 min at 37 C; read-out: hSST2 cAMP Avg EC50. Put shortly:
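Agonist activity read as fall in intracellular cAMP: HTRF 665/620 nm ratio regressed to a cAMP standard curve, EC50 fitted. Stable human SSTR2 CHO-K1 cells exposed 20 min at 37 °C to compound, final concentrations typically 0-10,000 nM.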
In general terms: Time-resolved FRET reads energy transfer from a long-lived donor to a nearby acceptor.

The next test has as its target T2, SST2 (Homo sapiens, UniProt P30874).
T2 construct: host or cells: PathHunter CHO-K1 SST2 cells
Nature of the test: PathHunter CHO-K1 SST2 Internalization Assay. The following applies: PathHunter CHO-K1 SST2 cells; 90 min at 37 C; luminescence; read-out: Internalization EC50. Put shortly:
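Four-parameter nonlinear fits of background-corrected luminescence (duplicate means) gave IC50s. NDCs were serially diluted 1:3 over 11 points from a 10 uM final top concentration and incubated 90 min at 37 C with human SST2 CHO-K1 cells plated 48 h earlier at 2500/well. Beta-Glo read-out developed 60 min at RT.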

The subject of test [2] is NCI-H524 human small cell lung cancer cells. Nature of the test: H524 assay: inhibition of cell proliferation (CellTiter Glo). The following applies: 2 h treatment, washout, additional 70 h incubation. In a few lines: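 Proliferation was measured by CellTiter Glo 70 h after a washout that followed a 2 h pulse of NDC. Doses were an 11-point, two-fold dilution series from 1 uM. IC50 was fitted with a four-parameter model to luminescence-based % inhibition relative to control cells.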
In general terms: In ATP-based viability assays light output follows the ATP content of the culture.

*1 amine or outer side, *2 acyl side, *3 side chain or, on linkers, in order; H or OH if unused. Where a SMILES comes first, the peptide text is derived from it. [ ]: non-standard residue; d: D form. The star is where a group is joined. X4 = Cc1cc(F)cc(-c2cnc(NCCNC(=O)CCOCCC(=O)*)c(-c3nc4ccc(Cl)cc4[nH]3)c2N2CCC(N)CC2)c1; Dolaproine = CO[C@@H]([C@@H]1CCCN1)[C@@H](C)C(=O)O; Dil = CC[C@H](C)[C@H](NC)[C@@H](CC(=O)O)OC; PABC = O=C(OCc1ccc(N[*:1])cc1)[*:2]; X2 = C[C@@H](N*)[C@@H](O)c1ccccc1; Cit = NC(=O)NCCC[C@H](N)C(=O)O; NMeV = CN[C@H](C(=O)O)C(C)C; PEG1 = NCCOCCC(=O)O

T1 sequence (P30874 whole entry): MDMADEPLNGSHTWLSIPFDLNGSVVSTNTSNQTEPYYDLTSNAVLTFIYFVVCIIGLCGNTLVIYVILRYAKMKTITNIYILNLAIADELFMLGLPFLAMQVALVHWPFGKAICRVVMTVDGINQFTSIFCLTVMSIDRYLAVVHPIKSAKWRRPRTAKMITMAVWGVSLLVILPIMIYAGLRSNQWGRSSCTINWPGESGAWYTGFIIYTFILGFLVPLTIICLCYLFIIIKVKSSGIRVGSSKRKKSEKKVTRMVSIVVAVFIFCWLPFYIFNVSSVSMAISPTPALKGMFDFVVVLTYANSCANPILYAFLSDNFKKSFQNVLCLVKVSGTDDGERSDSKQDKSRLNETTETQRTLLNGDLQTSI
T2 sequence (P30874 whole entry): as above

On to `CC[C@H](C)[C@@H]([C@@H](CC(=O)N1CCC[C@H]1[C@H](OC)[C@@H](C)C(=O)N[C@H](C)[C@@H](O)c1ccccc1)OC)N(C)C(=O)[C@@H](NC(=O)[C@H](C(C)C)N(C)C(=O)OCc1ccc(NC(=O)[C@H](CCCNC(N)=O)NC(=O)[C@@H](NC(=O)CCOCCOCCOCCOCCC(=O)NCCNc2ncc(-c3cc(C)cc(F)c3)c(N3CCC(N)CC3)c2-c2nc3ccc(Cl)cc3[nH]2)C(C)C)cc1C(=O)NCC(=O)O)C(C)C` [Compound 86], for which the values for the concentration giving a half-maximal response (EC50) (in test [1]; at SST2; in test [2]) were 0.068 nM, 4.1 nM and 1000 nM, respectively.

`CC[C@H](C)[C@@H]([C@@H](CC(=O)N1CCC[C@H]1[C@H](OC)[C@@H](C)C(=O)N[C@H](C)[C@@H](O)c1ccccc1)OC)N(C)C(=O)[C@@H](NC(=O)[C@H](C(C)C)N(C)C(=O)OCc1ccc(NC(=O)[C@H](CCCNC(N)=O)NC(=O)[C@@H](NC(=O)CCOCCOCCOCCOCCNc2ncc(C(=O)NCCNc3ncc(-c4cc(C)cc(F)c4)c(N4CCC(N)CC4)c3-c3nc4ccc(Cl)cc4[nH]3)cn2)C(C)C)cc1)C(C)C` [Compound 180]: the EC50 turned out to be 0.52 nM in test [1], 16 nM at SST2 and 680 nM in test [2].

As to `CC[C@H](C)[C@@H]([C@@H](CC(=O)N1CCC[C@H]1[C@H](OC)[C@@H](C)C(=O)N[C@H](C)[C@@H](O)c1ccccc1)OC)N(C)C(=O)[C@@H](NC(=O)[C@H](C(C)C)N(C)C(=O)OCc1ccc(NC(=O)[C@H](C)NC(=O)[C@@H](NC(=O)[C@@H](CS(=O)(=O)O)NC(=O)CCOCCC(=O)NCCNc2ncc(-c3cc(C)cc(F)c3)c(N3CCC(N)CC3)c2-c2nc3ccc(Cl)cc3[nH]2)C(C)C)c(O[C@@H]2O[C@H](C(=O)NCCN)[C@@H](O)[C@H](O)[C@H]2O)c1)C(C)C` [Compound 41], the EC50 in test [1] was 0.081 nM; at SST2, 9 nM; in test [2], 40 nM.

For the compound `CC[C@H](C)[C@@H]([C@@H](CC(=O)N1CCC[C@H]1[C@H](OC)[C@@H](C)C(=O)N[C@H](C)[C@@H](O)c1ccccc1)OC)N(C)C(=O)[C@@H](NC(=O)[C@H](C(C)C)N(C)C(=O)OCc1ccc(NC(=O)[C@H](CCCNC(N)=O)NC(=O)[C@@H](NC(=O)CCCCCCCCNc2ncc(-c3cc(C)cc(F)c3)c(N3CCC(N)CC3)c2-c2nc3ccc(Cl)cc3[nH]2)C(C)C)c(O[C@@H]2O[C@H](C(=O)NCC(=O)O)[C@@H](O)[C@H](O)[C@H]2O)c1)C(C)C` [Compound 193], the values for the EC50 (in test [1]; on SST2; in test [2]) were 0.87 nM, 3.8 nM and 32 nM, respectively.

For the compound `CC[C@H](C)[C@@H]([C@@H](CC(=O)N1CCC[C@H]1[C@H](OC)[C@@H](C)C(=O)N[C@H](C)[C@@H](O)c1ccccc1)OC)N(C)C(=O)[C@@H](NC(=O)[C@H](C(C)C)N(C)C(=O)OCc1ccc(NC(=O)[C@H](CCCNC(N)=O)NC(=O)[C@@H](NC(=O)CCOCCC(=O)N(C)CC(=O)NCCNc2ncc(-c3cc(C)cc(F)c3)c(N3CCC(N)CC3)c2-c2nc3ccc(Cl)cc3[nH]2)C(C)C)c(O[C@@H]2O[C@H](C(=O)NCCN(C)C)[C@@H](O)[C@H](O)[C@H]2O)c1)C(C)C` [Compound 215], the 50% effective concentration (EC50) in test [1] was 0.14 nM; on SST2, 7.8 nM; in test [2], 5 nM.

As for `CC[C@H](C)[C@@H]([C@@H](CC(=O)N1CCC[C@H]1[C@H](OC)[C@@H](C)C(=O)N[C@H](C)[C@@H](O)c1ccccc1)OC)N(C)C(=O)[C@@H](NC(=O)[C@H](C(C)C)N(C)C(=O)OCc1ccc(NC(=O)[C@H](CCCNC(N)=O)NC(=O)[C@@H](NC(=O)CCCC(=O)N(C)CC(=O)NCCNc2ncc(-c3cc(C)cc(F)c3)c(N3CCC(N)CC3)c2-c2nc3ccc(Cl)cc3[nH]2)C(C)C)c(O[C@@H]2O[C@H](C(=O)O)[C@@H](O)[C@H](O)[C@H]2O)c1)C(C)C` [Compound 56], the results for the half-maximal effective concentration (EC50) (in test [1]; on SST2; in test [2]) were 0.81 nM, 68 nM and 26 nM, respectively.

In the case of `CC[C@H](C)[C@@H]([C@@H](CC(=O)N1CCC[C@H]1[C@H](OC)[C@@H](C)C(=O)N[C@H](C)[C@@H](O)c1ccccc1)OC)N(C)C(=O)[C@@H](NC(=O)[C@H](C(C)C)N(C)C(=O)OCc1ccc(NC(=O)[C@H](CCCNC(N)=O)NC(=O)[C@@H](NC(=O)CCOCCC(=O)NCCNc2ncc(-c3cc(C)cc(F)c3)c(N3CCC(N)CC3)c2-c2nc3ccc(Cl)cc3[nH]2)C(C)C)c(O[C@H]2[C@H](O)[C@@H](O)[C@H](O)[C@@H](C(=O)N(C)CC(=O)N(C)CC(=O)N(C)CC(=O)O)[C@H]2O)c1)C(C)C` [Compound 236], the half-maximal effective concentration (EC50) amounted to 0.14 nM in test [1], 5.1 nM on SST2 and 9.9 nM in test [2].

Turning to `CC[C@H](C)[C@@H]([C@@H](CC(=O)N1CCC[C@H]1[C@H](OC)[C@@H](C)C(=O)N[C@H](C)[C@@H](O)c1ccccc1)OC)N(C)C(=O)[C@@H](NC(=O)[C@H](C(C)C)N(C)C(=O)OCc1ccc(NC(=O)C(CCCNC(N)=O)NC(=O)C2(NC(=O)CCOCCC(=O)NCCNc3ncc(-c4cc(C)cc(F)c4)c(N4CCC(N)CC4)c3-c3nc4ccc(Cl)cc4[nH]3)CCC2)c(O[C@@H]2O[C@H](C(=O)O)[C@@H](O)[C@H](O)[C@H]2O)c1)C(C)C` (stereo partly drawn) [Compound 242], the concentration for a half-maximal effect (EC50) was 0.045 nM in test [1], 2.5 nM at SST2 and 70 nM in test [2].

For `CC[C@H](C)[C@@H]([C@@H](CC(=O)N1CCC[C@H]1[C@H](OC)[C@@H](C)C(=O)N[C@H](C)[C@@H](O)c1ccccc1)OC)N(C)C(=O)[C@@H](NC(=O)[C@H](C(C)C)N(C)C(=O)OCc1ccc(NC(=O)[C@H](CCCNC(N)=O)NC(=O)[C@@H](NC(=O)CN(C)C(=O)CCOCCC(=O)NCCNc2ncc(-c3cc(C)cc(F)c3)c(N3CCC(N)CC3)c2-c2nc3ccc(Cl)cc3[nH]2)C(C)C)c(O[C@@H]2O[C@H](C(=O)O)[C@@H](O)[C@H](O)[C@H]2O)c1)C(C)C` [Compound 118], the EC50 in test [1] turned out to be 0.24 nM; at SST2 it was 9.3 nM; in test [2], 22 nM.

Consider `CC[C@H](C)[C@@H]([C@@H](CC(=O)N1CCC[C@H]1[C@H](OC)[C@@H](C)C(=O)N[C@H](C)[C@@H](O)c1ccccc1)OC)N(C)C(=O)[C@@H](NC(=O)[C@H](C(C)C)N(C)C(=O)OCc1ccc(NC(=O)[C@H](CCCNC(N)=O)NC(=O)[C@@H](NC(=O)CCOCCOCCOCCOCCC(=O)NCCNc2ncc(-c3cc(C)cc(F)c3)c(N3CCC(N)CC3)c2-c2nc3ccc(Cl)cc3[nH]2)C(C)C)cc1C(=O)O)C(C)C` [Compound 4], for which the 50% effective concentration (EC50) in test [1] stood at 0.11 nM; on SST2, 3.8 nM; in test [2], 740 nM.

With `CC[C@H](C)[C@@H]([C@@H](CC(=O)N1CCC[C@H]1[C@H](OC)[C@@H](C)C(=O)N[C@H](C)[C@@H](O)c1ccccc1)OC)N(C)C(=O)[C@@H](NC(=O)[C@H](C(C)C)N(C)C(=O)OCc1ccc(NC(=O)[C@H](CCCNC(N)=O)NC(=O)[C@@H](NC(=O)c2cc(NC(=O)C[C@@H](N)C(=O)NCCOCCC(=O)NCCNc3ncc(-c4cc(C)cc(F)c4)c(N4CCC(N)CC4)c3-c3nc4ccc(Cl)cc4[nH]3)cc(C(=O)NCC(=O)O)c2)C(C)C)cc1)C(C)C` [Compound 156], the concentration giving a half-maximal response (EC50) in test [1] is 0.28 nM; at SST2, 14 nM; in test [2], 140 nM.

As to `CC[C@H](C)[C@@H]([C@@H](CC(=O)N1CCC[C@H]1[C@H](OC)[C@@H](C)C(=O)N[C@H](C)[C@@H](O)c1ccccc1)OC)N(C)C(=O)[C@@H](NC(=O)[C@H](C(C)C)N(C)C(=O)OCc1ccc(NC(=O)[C@H](CCCNC(N)=O)NC(=O)[C@@H](NC(=O)CCOCCNC(=O)[C@H](CCC(=O)O)NC(=O)[C@H](CCC(N)=O)NC(=O)CCOCCC(=O)NCCNc2ncc(-c3cc(C)cc(F)c3)c(N3CCC(N)CC3)c2-c2nc3ccc(Cl)cc3[nH]2)C(C)C)cc1)C(C)C` [Compound 191] (X4-QE[PEG1]V[Cit][PABC][NMeV]V[Dil][Dolaproine]-X2), the values for the EC50 (in test [1]; at SST2; in test [2]) were 1.9 nM, 38 nM and 1700 nM, respectively.

As for `CC[C@H](C)[C@@H]([C@@H](CC(=O)N1CCC[C@H]1[C@H](OC)[C@@H](C)C(=O)N[C@H](C)[C@@H](O)c1ccccc1)OC)N(C)C(=O)[C@@H](NC(=O)[C@H](C(C)C)N(C)C(=O)OCc1ccc(NC(=O)[C@H](CCCNC(N)=O)NC(=O)[C@@H](NC(=O)CCOCCC(=O)NCCNc2ncc(-c3cc(C)cc(F)c3)c(N3CCC(N)CC3)c2-c2nc3ccc(Cl)cc3[nH]2)C(C)C)c(O[C@@H]2O[C@H](C(=O)NCCNC(=O)CCOCCOCCOCCOCCC(=O)O)[C@@H](O)[C@H](O)[C@H]2O)c1)C(C)C` [Compound 52], the EC50 in test [1] worked out at 0.14 nM; at SST2, 3.5 nM; in test [2] it was 17 nM.

Consider `CC[C@H](C)[C@@H]([C@@H](CC(=O)N1CCC[C@H]1[C@H](OC)[C@@H](C)C(=O)N[C@H](C)[C@@H](O)c1ccccc1)OC)N(C)C(=O)[C@@H](NC(=O)[C@H](C(C)C)N(C)C(=O)OCc1ccc(NC(=O)[C@H](CCCNC(N)=O)NC(=O)[C@@H](NC(=O)CCOCCC(=O)NCCNc2ncc(-c3cc(C)cc(F)c3)c(N3CCC(N)CC3)c2-c2nc3ccc(Cl)cc3[nH]2)C(C)C)c(O[C@@H]2O[C@H](C(=O)N3CCOCC3)[C@@H](O)[C@H](O)[C@H]2O)c1)C(C)C` [Compound 223], for which the figures for the EC50 (in test [1]; on SST2; in test [2]) were 0.054 nM, 2.8 nM and 9.2 nM, respectively.
